The values below come from US20150005252A1, “COMBINATION THERAPY FOR THE TREATMENT OF CANCER” (TILTAN PHARMA LTD., priority 2012, published 2015).

For the assay, the system named is Mouse pancreatic-adenocarcinoma cell-line PANC02. Briefly: Orthotopic PANC02 pancreatic tumor model in mice, IP treatment, tumors excised and weighed on Day 18. The assay is classed as in vivo. As for the experimental part: Total study duration was 18 days (Treatment period: 14 days, i.e. two weekly treatment schedules). Tumour cells inoculation day was registered as “Day 1”. The compositions were administered IP six days per week starting on Day 4.
Tumor Cells: Mouse pancreatic-adenocarcinoma cell-line PANC02 (a kind gift from Dr A. Marten, University of Heidelberg, Germany).
CB6F1 female mice, 21.1 g average body weight, 10 mice per treatment group.
Five test groups were conducted, each administered with a different treatment composition and schedule as detailed in Tables 1 and 2 below.
Treatment Groups were administered with either vehicle alone (Group 1), a combination of TL-118 and Gemcitabine (Groups 2 and 3), Gemcitabine alone 9 Group 4) and TL-118 alone (Group 5).
• In Groups 2 and 5 the 1st day of TL-118 was Wed. while for Group 3 1st day of TL-118 was Thur. No treatment was given on Sat (see also Table 3 below).
In Group 2 the treatment started with TL-118 and Gemcitabine was administered on the following day while in Group 3 the treatment started with Gemcitabine administration then TL-118 initiation on the following day (see Table 3 below).
The cells were removed from flasks using trypsin. 60 million (60×10^6) cells were counted and re-suspended in 4.5 ml phosphate buffered saline. Before cell spin-down, cells were strained through cell strainer according to the following procedure: • 1. Strainer was placed on 50 ml tube; • 2. Strainer was washed with 5 ml phosphate buffered saline; • 3. Cells detached from flasks in RPMI growth medium were poured over strainer; • 4. Strainer was washed with 5 ml phosphate buffered saline.
Tumor cells (4×10^5 cells, in 30 μl, per animal) are injected into the pancreas using needle 30 G. Tumor cells inoculation to animals was performed under anesthesia (Ketamine 85 mg/kg & Xylasine 5 mg/kg).
Compositions were administered IP using needle 27 G. Compositions were administered daily from Day 4 for duration of […] (see Table I). Body weights measurements (twice weekly) were used for dosing volume calculations from recent measurement. […]

Consider `Nc1ccn([C@@H]2O[C@H](CO)[C@@H](O)C2(F)F)c(=O)n1` [Gemcitabine, 4-amino-1-(2-deoxy-2,2-difluoro-β-D-erythro-pentofuranosyl)pyrimidin-2(1H)-on], for which the “representative tumors found at the end of treatment schedule” value (FIGS. 5A-5E, compared with large tumors in vehicle Group 1) is “smaller volume tumors”. Further, the “End Result Effect: tumor size relative to vehicle” value (Table 3, end of study, vehicle: very large tumors) was “small tumors relative”. Where the note is “end of study (Day 18), CB6F1 female mice, IP, FIG. 1”, the “percentage of tumor bearing animals” value is “about 80%”.
